This note sets out measurements from article PMC8765781, “A platform of assays for the discovery of anti-Zika small-molecules with activity in a 3D-bioprinted outer-blood-retina model” (PLoS ONE, 2022).

In series [1] the test system is caspase-3 activity induced by ZIKV in Vero cells. Description: cells. In kind it is cell-based. To be noted: read-out: Caspase 3 (ZIKV Antiviral Assays), IC50.
Series [2] deals with ZIKV-RLuc (Cambodian strain FSS13025). Description: microbe, parasite or virus in culture. The class given is cell-based, Zika virus. To be noted: for IC50: read-out: Rluc-ZIKV (ZIKV Antiviral Assays), IC50.
For series [3], the system named is wild-type ZIKV (Ugandan MR766 strain) in Vero cells. Description: ZIKV cytopathic effect (CPE) inhibition qHTS assay, CellTiter-Glo readout. The class given is cell-based, Zika virus. Particulars: for IC50: read-out: ZIKV-infection (CPE, ZIKV Antiviral Assays), IC50.
Series [4] has as its system ZIKV-mCherry (Cambodian strain FSS13025). Description: microbe, parasite or virus in culture. In kind it is cell-based, Zika virus.
Series [5] is described as follows: in vitro. Particulars: African green monkey.
A short description of series [6]: in vitro. Particulars: human.
Series [7] concerns YFV (YFV 17D).
Series [8] has as its system mCherry-ZIKV in human neuronal progenitor cells. Description: microbe, parasite or virus in culture. The class given is cell-based, Zika virus.
For series [9], the system named is ZIKV.
Series [10] has as its system DENV (Dengue virus type 2, strain New Guinea C).
Series [11] concerns WNV (Kern515/WN02).
Series [12] relates to Vero cells.
The mark [13] stands for this setting: Zika virus, Vero, read-out: Log AC50 (M) (converted).

Each structure is given as a SMILES string. Read-outs that look alike come from different tables or passages of the source.

For `C=C(C)C1Cc2c(ccc3c2OCC(c2ccc(O)cc2O)C3)O1` (stereo not drawn) [NCGC00347653-02], the IC50 in series [1] (Zika virus, Vero, 48 h) amounted to 16.2 µM. Also, the half-inhibitory concentration (IC50) in series [2] (Zika virus, Vero, 48 h) stood at 0.02 µM. In series [3], the Curve class is on record as -3 and the Efficacy is recorded as -16.545. Further, the AC50 in [3] (Zika virus, Vero) turned out to be 7.18e-08 M. In addition, the IC50 in series [3] (Zika virus, Vero, 48 h) was found to be 0.07 µM. Also, the AC50 in series [3] (Zika virus, Vero, read-out: Log AC50 (converted)) is 7.18e-08 M. Also, in [3] (Zika virus, Vero, read-out: Max response), the Emax is -30.5%. Further, in series [4], the “CC-v2 (curve class of the dose response curve)” value worked out at 5; the “Efficacy (difference between neutral response and maximum compound response)” value was 33.59; the “Max Resp (difference between neutral response and response at highest compound concentration)” value is -97.958. Further, the CC50 at 48 h in [5] (Vero cells) was > 50 µM. Besides, the CC50 in series [6] was > 30 µM.

As to `COc1cc2c(cc1OC)[C@@H]1[C@H](O)[C@@H](OC)C=C3CCN(C2)[C@H]31` [NCGC00384634-01], the half-inhibitory concentration (IC50) came out at 1.29 µM in series [1] (Zika virus, Vero, 48 h); 4.55 µM in series [2] (Zika virus, Vero, 48 h); 5.7 µM in series [3] (Zika virus, Vero, 48 h). Besides, the “CC-v2 (curve class classification of the dose response curve)” value in series [3] is -1.2. Further, the Efficacy in series [3] is listed as -55.9. Further, the concentration at half-maximal activity (AC50) was 5.7e-06 M in [3] (Zika virus, Vero); 5.7e-06 M in [3] (setting [13]); 8.26e-07 M in series [4] (Zika virus, Vero); 8.26e-07 M in [4] (setting [13]). Besides, in [4], the “CC-v2 (curve class of the dose response curve)” value was -1.2. Moreover, the “Efficacy (difference between neutral response and maximum compound response)” value in [4] is -42.96. Also, the “Max Resp (difference between neutral response and response at highest compound concentration)” value in [4] is listed as -99.819. Further, the CC50 was > 50 µM in series [5] and > 30 µM in series [6].

In the case of `CC1=C[C@H]2O[C@@H]3[C@H](O)C[C@](C)([C@@]2(CO)[C@H](O)C1=O)[C@]31CO1` [NCGC00180572-02, vomitoxin], the IC50 was determined as 0.74 µM in series [1]; 0.74 µM in series [2]; 0.52 µM in series [3]; 4.4 µM in series [8] (read-out: IC50 in NPC); 4.47 µM in series [8] (read-out: NPC (ZIKV Antiviral Assays), IC50). In addition, in series [7], the “YFV active Yes/No” value is recorded as “Yes”. For the same molecule, the figures for the Efficacy in [3] and in [8] were -38.561 and -97.398, respectively. Further, the “Log AC50 (M)” value in series [3] is given as -6.2862 M; in series [8] it was -5.35 M; in series [4], -7.0741 M. The “Max Resp” value was -28.893 in series [3] and -88.056 in series [8]. The concentration at half-maximal activity (AC50) in [3] (read-out: AC50) is 5.17e-07 M; in series [8] (read-out: AC50) it was 4.47e-06 M; in series [4] (read-out: AC50), 8.43e-08 M. In series [8], the “CC-v2 (curve class)” value was -1.1. Further, the “ZIKV active Yes/No” value in series [9] is recorded as “Yes”. Also, the “CC-v2 (curve class of the dose response curve)” value in [4] was -1.1. The “Efficacy (difference between neutral response and maximum compound response)” value in series [4] is recorded as -87.951. Also, the “Max Resp (difference between neutral response and response at highest compound concentration)” value in [4] is recorded as -98.582. In addition, the “DENV active Yes/No” value in series [10] is recorded as “Yes”. The “WHV active Yes/No” value in [11] is listed as “Yes”.

With `COc1ccc([C@H]2OC[C@H]3O[C@@H](O[C@H]4[C@@H]2NC[C@@H]4O)[C@H](O)[C@H]3O)cc1` [NCGC00380307-01], the IC50 in series [1] (Zika virus, Vero, 48 h) was found to be 6.46 µM; in [2] (Zika virus, Vero, 48 h), 2.28 µM; in [3] (Zika virus, Vero, 48 h), 22.7 µM. Also, the “CC-v2 (curve class classification of the dose response curve)” value in series [3] is given as -1.2. Further, the Efficacy in series [3] was -66.527. In addition, the concentration at half-maximal activity (AC50) in series [3] (Zika virus, Vero) was 2.27e-05 M; in [3] (setting [13]), 2.27e-05 M; in [4] (Zika virus, Vero) it was 1.31e-07 M; in [4] (setting [13]), 1.31e-07 M. For the same molecule, the “CC-v2 (curve class of the dose response curve)” value in series [4] was -1.2. For the same molecule, the “Efficacy (difference between neutral response and maximum compound response)” value in series [4] is on record as -48.259. Further, the “Max Resp (difference between neutral response and response at highest compound concentration)” value in [4] was -100.305. Further, in series [5] (Vero cells), the CC50 at 48 h is > 50 µM. In addition, in series [6], the CC50 was > 30 µM.

In the case of `Cc1ccc2c(c1)Cc1c(C(=O)NN3CCCCC3)nn(-c3ccc(Cl)cc3Cl)c1-2` [NCGC00167846-01], in series [12], the AC50 turned out to be 4.14 µM and the “Log AC50 (M)” value is on record as -5.3827 M. Moreover, the “YFV active Yes/No” value in series [7] is listed as “No”. For the same molecule, in series [2], the “CC-v2 (curve class classification v2 of the dose response curve)” value is -1.1; the “Efficacy (difference between neutral response and maximum compound response)” value is given as -95.949; the “Max Resp (difference between neutral response and compound response for highest compound concentration)” value was -99.943. This molecule came in with a half-maximal activity concentration (AC50) in series [2] (Zika virus, Vero) of 4.14e-06 M. The AC50 in series [2] (setting [13]) was 4.14e-06 M. Moreover, in [8], the “Antiviral activity in human NPC” value is on record as “effectively inhibited ZIKV in NPC cells”, the Efficacy is given as -97.35 and the “Max Resp” value is -80.167. Moreover, in [8] (Zika virus, Neuronal progenitor cell), the activity was half-maximal at 3.98e-05 M (AC50). Also, in [8] (Zika virus, Neuronal progenitor cell, read-out: Log AC50 (M) (converted)), the concentration at half-maximal activity (AC50) is 3.98e-05 M. For the same molecule, in [9], the “Activity against ZIKV” value is “active against both DENV and ZIKV”; the “SI value ZIKV (CC50/EC50)” value is on record as 31; the “ZIKV active Yes/No” value was “Yes”. In series [4], the “CC-v2 (curve class of the dose response curve)” value was -1.3; the “Efficacy (difference between neutral response and maximum compound response)” value is reported as -70.543; the “Max Resp (difference between neutral response and response at highest compound concentration)” value is reported as -100.29. In [4] (Zika virus, Vero), half-maximal activity (AC50) was put at 6.7e-07 M. The concentration at half-maximal activity (AC50) in series [4] (setting [13]) is 6.7e-07 M. In [10], the “Activity against DENV” value was “active against both DENV and ZIKV”; the “DENV active Yes/No” value is on record as “Yes”; the “SI value DENV (CC50/EC50)” value turned out to be 16. Also, the “WHV active Yes/No” value in [11] is “No”.

In the case of `O=C(O)Cc1cc(I)c(Oc2ccc(O)c(I)c2)c(I)c1` [NCGC00016227-08], the half-inhibitory concentration (IC50) in series [1] (Zika virus, Vero, 48 h) is > 48 µM; in series [2] (Zika virus, Vero, 48 h) it was 23.3 µM; in series [3] (Zika virus, Vero, 48 h), 29.1 µM. Moreover, in [3], the Efficacy is on record as -29.653. For the same molecule, the AC50 in series [3] (Zika virus, Vero) is 2.91e-05 M; in series [3] (setting [13]) it was 2.91e-05 M; in [4] (Zika virus, Vero), 1.5e-05 M; in series [4] (setting [13]), 1.5e-05 M. Moreover, in series [4], the “CC-v2 (curve class of the dose response curve)” value was -1.3. In addition, in series [4], the “Efficacy (difference between neutral response and maximum compound response)” value was -57.778. For the same molecule, in [4], the “Max Resp (difference between neutral response and response at highest compound concentration)” value was -100.305. In [5], the CC50 at 48 h is > 50 µM. Also, the CC50 in series [6] was > 30 µM.

`CS[C@H]1SC[C@@H]2C(=O)N(C)[C@H](C(C)C)C(=O)OC[C@H](NC(=O)c3cnc4ccccc4n3)C(=O)N[C@H](C)C(=O)N(C)[C@H]1C(=O)N(C)[C@H](C(C)C)C(=O)OC[C@H](NC(=O)c1cnc3ccccc3n1)C(=O)N[C@H](C)C(=O)N2C` [NCGC00163548-03]: the “YFV active Yes/No” value in series [7] was “No”. For the same molecule, the “Antiviral activity in human NPC” value in [8] is on record as “moderate antiviral activity”. Further, the “ZIKV active Yes/No” value in series [9] is given as “No”. For the same molecule, in series [4], the “CC-v2 (curve class of the dose response curve)” value is on record as -1.1; the “Efficacy (difference between neutral response and maximum compound response)” value is recorded as -108.47; the “Max Resp (difference between neutral response and response at highest compound concentration)” value was -100.29. The molecule further returned an AC50 in [4] (Zika virus, Vero) of 2.99e-09 M. Further, in [4] (setting [13]), the AC50 is 2.99e-09 M. In addition, the “DENV active Yes/No” value in [10] was “No”. The “WHV active Yes/No” value in series [11] is on record as “No”.

Take `CCN(CC)CCCC(C)Nc1ccnc2cc(Cl)ccc12` (stereo not drawn) [NCGC00015256, chloroquine, reference compound]: in series [7], the “SI value YFV (CC50/EC50)” value amounted to 1.2 and the “YFV active Yes/No” value is reported as “No”. Moreover, the “ZIKV active Yes/No” value in series [9] is listed as “No”. Also, in series [10], the “DENV active Yes/No” value was “No”. Besides, in series [11], the “WHV active Yes/No” value is recorded as “No”.
